Results reported in PubChem BioAssay (NCI).
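Method: 48-hour compound exposure of cells in 96-well plates, five concentrations, linear interpolation of endpoints. At the TGI there is no net growth.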

Columns and labels:
Test in all cases: NCI-60 cell line screen, 48 h
MALME-3M melanoma = system: MALME-3M melanoma
SF-539 CNS = system: SF-539 CNS
HCT-116 colon = system: HCT-116 colon
MDA-N = system: MDA-N
COLO 205 colon = system: COLO 205 colon
LOX IMVI melanoma = system: LOX IMVI melanoma
HL-60(TB) leukemia = system: HL-60(TB) leukemia
U251 CNS = system: U251 CNS
CAKI-1 renal = system: CAKI-1 renal
SN12C renal = system: SN12C renal

C=CCOc1ccc(C2(O)c3ccccc3C3=NCCCN32)cc1 (stereo not given)
TGI (MALME-3M melanoma): 27.4 µM
TGI (SF-539 CNS): > 100 µM
TGI (HCT-116 colon): > 100 µM
TGI (MDA-N): > 63.2 µM
TGI (COLO 205 colon): 43.5 µM
TGI (LOX IMVI melanoma): > 100 µM
TGI (HL-60(TB) leukemia): > 100 µM
TGI (U251 CNS): > 100 µM
TGI (CAKI-1 renal): > 100 µM
TGI (SN12C renal): > 100 µM
